Molecular target: xanthine oxidase (Homo sapiens, UniProt P47989)
Assay: Fluorescence-based xanthine oxidase activity assay
Type: biochemical
Settings: verbal rating

xanthine oxidase, sequence (P47989 whole entry, species assumed): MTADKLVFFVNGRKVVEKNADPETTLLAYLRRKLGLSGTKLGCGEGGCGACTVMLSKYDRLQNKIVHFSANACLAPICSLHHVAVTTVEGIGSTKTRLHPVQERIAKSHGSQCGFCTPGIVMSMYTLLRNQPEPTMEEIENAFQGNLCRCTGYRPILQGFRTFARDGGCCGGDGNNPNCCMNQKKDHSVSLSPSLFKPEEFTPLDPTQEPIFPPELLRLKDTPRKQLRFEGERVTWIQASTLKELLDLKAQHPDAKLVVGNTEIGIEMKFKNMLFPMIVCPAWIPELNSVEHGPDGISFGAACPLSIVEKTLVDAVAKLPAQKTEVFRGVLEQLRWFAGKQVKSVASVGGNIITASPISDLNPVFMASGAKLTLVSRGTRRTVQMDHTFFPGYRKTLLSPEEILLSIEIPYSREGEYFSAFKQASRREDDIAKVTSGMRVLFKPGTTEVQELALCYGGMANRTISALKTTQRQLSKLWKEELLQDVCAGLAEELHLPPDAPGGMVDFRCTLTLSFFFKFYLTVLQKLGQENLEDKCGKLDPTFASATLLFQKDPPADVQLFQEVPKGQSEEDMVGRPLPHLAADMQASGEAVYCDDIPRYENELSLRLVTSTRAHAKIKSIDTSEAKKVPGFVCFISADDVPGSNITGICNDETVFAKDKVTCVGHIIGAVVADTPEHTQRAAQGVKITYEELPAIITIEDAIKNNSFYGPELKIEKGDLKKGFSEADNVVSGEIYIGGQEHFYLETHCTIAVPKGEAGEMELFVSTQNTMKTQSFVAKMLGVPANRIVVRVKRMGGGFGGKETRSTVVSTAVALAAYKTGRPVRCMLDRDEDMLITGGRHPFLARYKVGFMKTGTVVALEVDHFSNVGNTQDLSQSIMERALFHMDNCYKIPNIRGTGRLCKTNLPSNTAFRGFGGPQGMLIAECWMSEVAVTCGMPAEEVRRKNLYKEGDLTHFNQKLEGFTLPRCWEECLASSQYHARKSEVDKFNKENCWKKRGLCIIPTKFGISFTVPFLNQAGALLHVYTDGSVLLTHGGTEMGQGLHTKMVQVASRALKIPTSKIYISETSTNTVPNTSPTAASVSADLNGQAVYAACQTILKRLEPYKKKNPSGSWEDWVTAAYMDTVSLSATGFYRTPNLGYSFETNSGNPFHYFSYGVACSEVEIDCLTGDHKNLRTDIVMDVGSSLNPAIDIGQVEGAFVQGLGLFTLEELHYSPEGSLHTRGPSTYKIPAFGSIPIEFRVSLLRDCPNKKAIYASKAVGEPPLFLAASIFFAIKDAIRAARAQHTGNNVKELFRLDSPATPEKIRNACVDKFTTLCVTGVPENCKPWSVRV

| SMILES | inhibition of xanthine oxidase compared to allopurinol |
| --- | --- |
| Cn1c(=O)[nH]c(O)c(C(=N)Nc2ccc(-c3cnn[nH]3)cc2)c1=O [Formula (Ih)] | particularly potent inhibitors |
| Cn1c(O)c(C(=N)Nc2ccc(-c3cnn[nH]3)cc2)c(=O)n(C)c1=O [Formula (If), N-(4-(1H-1,2,3-triazol-5-yl)phenyl)-6-hydroxy-1,3-dimethyl-2,4-dioxo-1,2,3,4-tetrahydropyrimidine-5-carboximidamide] | particularly potent inhibitors |
| Nc1[nH]c(=O)[nH]c(=O)c1C(=O)Nc1ccc(-c2c[nH]nn2)cc1 [Formula (Ik), N-(4-(1H-1,2,3-triazol-5-yl)phenyl)-6-amino-2,4-dioxo-1,2,3,4-tetrahydropyrimidine-5-carboxamide] | particularly potent inhibitors |
| N=C(Nc1ccc(-c2cnn[nH]2)cc1)c1c(O)[nH]c(=O)[nH]c1=O [Formula (Ia), N-(4-(1H-1,2,3-triazol-4-yl)phenyl)-6-hydroxy-2,4-dioxo-1,2,3,4-tetrahydropyrimidine-5-carboximidamide] | particularly potent inhibitors |
| O=c1[nH]c(O)c(/C(=N\O)Nc2ccc(-c3cnn[nH]3)cc2)c(=O)[nH]1 [Formula (Ic), (E)-N-(4-(1H-1,2,3-triazol-5-yl)phenyl)-N′-hydroxy-2,4,6-trioxohexahydro-pyrimidine-5-carboximidamide] | particularly potent inhibitors |
| O=c1[nH]c(=O)c2c(Nc3ccc(-c4cnn[nH]4)cc3)noc2[nH]1 [Formula (VIa), 3-((4-(1H-1,2,3-triazol-5-yl)phenyl)amino)isoxazolo[5,4-d]pyrimidine-4,6(5H,7H)-dione] | particularly potent inhibitors |
| COc1nc(O)c(C(=O)Nc2ccc(-c3cnn[nH]3)cc2)c(=O)[nH]1 [Formula (IIb), N-(4-(3H-1,2,3-triazol-4-yl)phenyl)-4-hydroxy-2-methoxy-6-oxo-1,6-dihydropyrimidine-5-carboxamide] | particularly potent inhibitors |
| Cn1c(=O)[nH]c(O)c(C(=O)Nc2ccc(-c3cnn[nH]3)cc2)c1=O [Formula (Ig), N-(4-(1H-1,2,3-triazol-4-yl)phenyl)-2,4-dihydroxy-1-methyl-6-oxo-1,6-dihydropyrimidine-5-carboxamide] | particularly potent inhibitors |
| CC(C)Sc1nc(O)c(C(=O)Nc2ccc(-c3c[nH]nn3)cc2)c(=O)[nH]1 [Formula (IId), N-(4-(1H-1,2,3-triazol-5-yl)phenyl)-4-hydroxy-2-(isopropylthio)-6-oxo-1,6-dihydropyrimidine-5-carboxamide] | particularly potent inhibitors |
| O=c1[nH]c(=O)c2c(Nc3ccc(-c4cnn[nH]4)cc3)n[nH]c2[nH]1 [Formula (VIb), 3-((4-(1H-1,2,3-triazol-5-yl)phenyl)amino)-1H-pyrazolo[3,4-d]pyrimidine-4,6(5H,7H)-dione] | particularly potent inhibitors |

Source: US20220024900A1, “Compounds and Their Use for Reducing Uric Acid Levels” (Acquist LLC, priority 2016, published 2022)
